# Assays:
# [1] = target: T1, Dihydroorotate dehydrogenase (quinone), mitochondrial (Homo sapiens, UniProt Q02127); experiment: Inhibition of human DHODH at 10 uM using dihydroorotate substrate by DCIP assay relative to control
# [2] = target: T1, Dihydroorotate dehydrogenase (quinone), mitochondrial; experiment: Inhibition of human DHODH using dihydroorotate substrate by DCIP assay
# T1 sequence (Q02127 whole entry): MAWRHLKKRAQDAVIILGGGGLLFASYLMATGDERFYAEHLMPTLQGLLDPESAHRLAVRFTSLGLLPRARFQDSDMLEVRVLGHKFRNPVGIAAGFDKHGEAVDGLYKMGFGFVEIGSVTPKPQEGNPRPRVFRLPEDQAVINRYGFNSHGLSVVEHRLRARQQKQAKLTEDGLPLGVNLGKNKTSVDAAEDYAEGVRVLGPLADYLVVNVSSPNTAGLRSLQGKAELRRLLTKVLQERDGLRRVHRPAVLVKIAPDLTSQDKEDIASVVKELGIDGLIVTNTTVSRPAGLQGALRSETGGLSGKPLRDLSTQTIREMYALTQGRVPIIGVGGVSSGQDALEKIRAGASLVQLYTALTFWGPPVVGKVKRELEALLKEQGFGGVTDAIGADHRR
SMILES,inhibition [1],IC50 [2]
CC(C)(C)OC(=O)/C(C#N)=C1\SCC(=O)N1c1ccccc1F,33.9%,> 10 µM
COC(=O)/C(C#N)=C1\SCCN1c1ccccc1F,11.1%,> 10 µM
CCOC(=O)/C(C#N)=C1\SCC(=O)N1c1ccccc1F,38.2%,> 10 µM
COC(=O)C(C(=O)OC)=C1SCC(=O)N1c1ccccc1F,4.27%,> 10 µM
COC(=O)/C(C#N)=C1\SCC(=O)N1c1cccc(Cl)c1,56.9%,8.51 µM
COC(=O)/C(C#N)=C1\SCC(=O)N1c1cccc(F)c1,34.1%,> 10 µM
CCCOC(=O)/C(C#N)=C1\SCC(=O)N1c1ccccc1F,33.5%,> 10 µM
COC(=O)/C(C#N)=C1\SCC(=O)N1c1ccc([N+](=O)[O-])cc1,62.9%,4.41 µM
COC(=O)/C(C#N)=C1\SCC(=O)N1c1ccnc(Cl)c1,45.4%,> 10 µM
N#C/C(C(=O)O)=C1/SCC(=O)N1c1ccccc1F,14.9%,> 10 µM
CCOC(=O)C(C(=O)OCC)=C1SCC(=O)N1c1ccccc1F,8.71%,> 10 µM
COC(=O)/C(C#N)=C1\SCC(=O)N1c1ccc2ccccc2c1,80.3%,
COC(=O)/C(C#N)=C1\SCC(=O)N1c1ccc(C(C)(C)C)cc1,79.1%,
O=C1CSC(=S)N1c1ccc(C(F)(F)F)cc1,25.6%,> 10 µM
CCCCOC(=O)/C(C#N)=C1\SCC(=O)N1c1ccccc1F,28.8%,> 10 µM
COC(=O)/C(C#N)=C1\SCC(=O)N1c1ccccc1F,34.9%,> 10 µM
COC(=O)/C(C#N)=C1\SCC(=O)N1c1ccc(F)cc1,49.4%,10.6 µM
COC(=O)/C(C#N)=C1\SCC(=O)N1c1ccccc1Cl,40%,> 10 µM
COC(=O)/C(C#N)=C1\SCCC(=O)N1c1ccccc1F,15.7%,> 10 µM
COC(=O)/C(C#N)=C1\SCC(=O)N1c1ccc(C(=O)O)cc1,15.1%,> 10 µM
COC(=O)/C(C#N)=C1\SCC(=O)N1c1ccc(C(F)(F)F)cc1,74.4%,3.03 µM
COC(=O)/C(C#N)=C1\SCC(=O)N1c1ccc(OC)cc1F,40.4%,> 10 µM
COC(=O)/C(C#N)=C1\SCC(=O)N1c1cccc2ccccc12,21.9%,> 10 µM
COC(=O)/C(C#N)=C1\SCC(=O)N1c1ccc(OC)cc1,52.5%,9.45 µM
COC(=O)/C(C#N)=C1\SCC(=O)N1c1cccc(Cl)n1,43.7%,> 10 µM
COC(=O)/C(C#N)=C1\SCC(=O)N1c1ccccc1I,18.4%,> 10 µM
N#C/C(C(N)=O)=C1/SCC(=O)N1c1ccccc1F,11.8%,> 10 µM
COC(=O)/C(C#N)=C1\SCC(=O)N1c1ccc(Br)cc1,69%,2.68 µM

# Source: ChEMBL document CHEMBL4261511, “Synthesis, structure-activity relationship and binding mode analysis of 4-thiazolidinone derivatives as novel inhibitors of human dihydroorotate dehydrogenase” (Medchemcomm, 2017)
